According to patent US6737383B1, “Herbicidal oxadiazolidines” (priority 1999, dated 2004):

Tests used:
purple nutsedge = assay: Test B pre/postemergence purple nutsedge; type: in vivo, Cyperus rotundus
Procedure, shortened: (§1)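 Response is a visual 0-to-10 score relative to untreated plants, where 0 means no effect and 10 means complete control, taken twelve to sixteen days after application. Treatments went onto soil at planting and onto foliage of 1- to 4-leaf plants, using a surfactant-containing non-phytotoxic solvent.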

crabgrass = assay: Test B pre/postemergence crabgrass; type: in vivo, Digitaria sanguinalis
Procedure, shortened: as §1

morningglory = assay: Test B pre/postemergence morningglory; type: in vivo, Ipomoea hederacea
Procedure, shortened: as §1

wheat = assay: Test B pre/postemergence wheat; type: in vivo, Triticum aestivum
Procedure, shortened: as §1

velvetleaf = assay: Test B pre/postemergence velvetleaf; type: in vivo, Abutilon theophrasti
Procedure, shortened: as §1

rape = assay: Test B pre/postemergence rape; type: in vivo, Brassica napus
Procedure, shortened: as §1

giant foxtail = assay: Test B pre/postemergence giant foxtail; type: in vivo, Setaria faberii
Procedure, shortened: as §1

cocklebur = assay: Test B pre/postemergence cocklebur; type: in vivo, Xanthium strumarium
Procedure, shortened: as §1

duck salad = assay: Test B flood test duck salad; type: in vivo, Heteranthera limosa
Procedure, shortened: (§2)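 Read-out is a visual response score from 0 (no effect) to 10 (complete control), assigned by comparison with untreated controls. Treatment was applied at the 2-leaf stage, and plants stayed in the greenhouse for twelve to sixteen days before scoring.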

pigweed = assay: Test B pre/postemergence pigweed; type: in vivo, Amaranthus retroflexus
Procedure, shortened: as §1

smallflower flatsedge = assay: Test B flood test smallflower flatsedge; type: in vivo, Cyperus difformis
Procedure, shortened: as §2

blackgrass = assay: Test B pre/postemergence blackgrass; type: in vivo, Alopecurus myosuroides
Procedure, shortened: as §1

corn = assay: Test B pre/postemergence corn; type: in vivo, Zea mays
Procedure, shortened: as §1

rice = assay: Test B flood test rice; type: in vivo, Oryza sativa
Procedure, shortened: as §2

soybean = assay: Test B pre/postemergence soybean; type: in vivo, Glycine max
Procedure, shortened: as §1

sugar beet = assay: Test B pre/postemergence sugar beet; type: in vivo, Beta vulgaris
Procedure, shortened: as §1

[1] = Postemergence, Rate 62 g/ha, scale 0 to 10, 0 is no effect, 10 is complete control
[2] = Postemergence, Rate 250 g/ha, scale 0 to 10, 0 no effect, 10 complete control
[3] = Preemergence, Rate 62 g/ha, scale 0 to 10 (0 no effect, 10 complete control)
[4] = Preemergence, Rate 125 g/ha, scale 0 to 10 (0 no effect, 10 complete control)
[5] = Preemergence, Rate 250 g/ha, scale of 0 to 10 where 0 is no effect and 10 is complete control
[6] = Preemergence, Rate 500 g/ha, scale 0 (no effect) to 10 (complete control)
[7] = Rate 125 g/ha, Postemergence, scale 0 to 10, 0 no effect, 10 complete control
[8] = Rate 500 g/ha, Postemergence, scale 0 to 10, 0 no effect, 10 complete control
[9] = Rate 62 g/ha, headed Pre-emergence (flood test species), scale 0 to 10 (0 no effect, 10 complete control)
[10] = Rate 125 g/ha, Pre-emergence, flood test species, scale 0 to 10 where 0 is no effect and 10 is complete control
[11] = Rate 250 g/ha, headed Pre-emergence (flood test species), scale 0 to 10 (0 no effect, 10 complete control)
[12] = Rate 500 g/ha, headed Pre-emergence (flood test species), scale 0 to 10 (0 no effect, 10 complete control)

CCN(Cc1ccccc1)C(=O)n1oc(=O)n(-c2c(C)cccc2C)c1=O [Compound 70]
0: Nutsedge plant response rating (purple nutsedge; [1]) | Nutsedge plant response rating (purple nutsedge; [2]) | Nutsedge plant response rating (purple nutsedge; [3]) | Plant response rating, Nutsedge (purple nutsedge; [4]) | Plant response rating, Nutsedge (purple nutsedge; [5]) | Nutsedge plant response rating (purple nutsedge; [6]) | Nutsedge plant response rating (purple nutsedge; [7]) | Nutsedge plant response rating (purple nutsedge; [8]) | Crabgrass plant response rating (crabgrass; [1]) | Crabgrass plant response rating (crabgrass; [2]) | Crabgrass plant response rating (crabgrass; [3]) | Plant response rating, Crabgrass (crabgrass; [4]) | Plant response rating, Crabgrass (crabgrass; [5]) | Crabgrass plant response rating (crabgrass; [6]) | Crabgrass plant response rating (crabgrass; [7]) | Crabgrass plant response rating (crabgrass; [8]) | Morningglory plant response rating (morningglory; [1]) | Morningglory plant response rating (morningglory; [2]) | Morningglory plant response rating (morningglory; [3]) | Plant response rating, Morningglory (morningglory; [4]) | Plant response rating, Morningglory (morningglory; [5]) | Morningglory plant response rating (morningglory; [6]) | Morningglory plant response rating (morningglory; [7]) | Morningglory plant response rating (morningglory; [8]) | Wheat plant response rating (wheat; [1]) | Wheat plant response rating (wheat; [2]) | Wheat plant response rating (wheat; [3]) | Plant response rating, Wheat (wheat; [4]) | Plant response rating, Wheat (wheat; [5]) | Wheat plant response rating (wheat; [6]) | Wheat plant response rating (wheat; [7]) | Wheat plant response rating (wheat; [8]) | Velvetleaf plant response rating (velvetleaf; [1]) | Velvetleaf plant response rating (velvetleaf; [2]) | Velvetleaf plant response rating (velvetleaf; [3]) | Plant response rating, Velvetleaf (velvetleaf; [4]) | Plant response rating, Velvetleaf (velvetleaf; [5]) | Velvetleaf plant response rating (velvetleaf; [6]) | Velvetleaf plant response rating (velvetleaf; [7]) | Velvetleaf plant response rating (velvetleaf; [8]) | Rape plant response rating (rape; [1]) | Rape plant response rating (rape; [2]) | Rape plant response rating (rape; [3]) | Plant response rating, Rape (rape; [4]) | Plant response rating, Rape (rape; [5]) | Rape plant response rating (rape; [6]) | Rape plant response rating (rape; [7]) | Rape plant response rating (rape; [8]) | Giant foxtail plant response rating (giant foxtail; [1]) | Giant foxtail plant response rating (giant foxtail; [2]) | Giant foxtail plant response rating (giant foxtail; [3]) | Plant response rating, Giant foxtail (giant foxtail; [4]) | Plant response rating, Giant foxtail (giant foxtail; [5]) | Giant foxtail plant response rating (giant foxtail; [6]) | Giant foxtail plant response rating (giant foxtail; [7]) | Giant foxtail plant response rating (giant foxtail; [8]) | Cocklebur plant response rating (cocklebur; [1]) | Cocklebur plant response rating (cocklebur; [2]) | Cocklebur plant response rating (cocklebur; [3]) | Plant response rating, Cocklebur (cocklebur; [4]) | Plant response rating, Cocklebur (cocklebur; [5]) | Cocklebur plant response rating (cocklebur; [6]) | Cocklebur plant response rating (cocklebur; [7]) | Cocklebur plant response rating (cocklebur; [8]) | Ducksalad plant response rating (duck salad; [9]) | Ducksalad plant response rating (duck salad; [10]) | Ducksalad plant response rating (duck salad; [11]) | Plant response rating, Ducksalad (duck salad; [12]) | Redroot pigweed plant response rating (pigweed; [1]) | Redroot pigweed plant response rating (pigweed; [2]) | Redroot pigweed plant response rating (pigweed; [3]) | Plant response rating, Redroot pigweed (pigweed; [4]) | Plant response rating, Redroot pigweed (pigweed; [5]) | Redroot pigweed plant response rating (pigweed; [6]) | Redroot pigweed plant response rating (pigweed; [7]) | Redroot pigweed plant response rating (pigweed; [8]) | S. Flatsedge plant response rating (smallflower flatsedge; [9]) | S. Flatsedge plant response rating (smallflower flatsedge; [10]) | S. Flatsedge plant response rating (smallflower flatsedge; [11]) | Plant response rating, S. Flatsedge (smallflower flatsedge; [12]) | Blackgrass plant response rating (blackgrass; [1]) | Blackgrass plant response rating (blackgrass; [2]) | Blackgrass plant response rating (blackgrass; [3]) | Plant response rating, Blackgrass (blackgrass; [4]) | Plant response rating, Blackgrass (blackgrass; [5]) | Blackgrass plant response rating (blackgrass; [6]) | Blackgrass plant response rating (blackgrass; [7]) | Blackgrass plant response rating (blackgrass; [8]) | Corn plant response rating (corn; [1]) | Corn plant response rating (corn; [2]) | Corn plant response rating (corn; [3]) | Plant response rating, Corn (corn; [4]) | Plant response rating, Corn (corn; [5]) | Corn plant response rating (corn; [6]) | Corn plant response rating (corn; [7]) | Corn plant response rating (corn; [8]) | Rice plant response rating (rice; [9]) | Rice plant response rating (rice; [10]) | Rice plant response rating (rice; [11]) | Plant response rating, Rice (rice; [12]) | Soybean plant response rating (soybean; [1]) | Soybean plant response rating (soybean; [2]) | Soybean plant response rating (soybean; [3]) | Plant response rating, Soybean (soybean; [4]) | Plant response rating, Soybean (soybean; [5]) | Soybean plant response rating (soybean; [6]) | Soybean plant response rating (soybean; [7]) | Soybean plant response rating (soybean; [8]) | Sugarbeets plant response rating (sugar beet; [1]) | Sugarbeets plant response rating (sugar beet; [2]) | Sugarbeets plant response rating (sugar beet; [3]) | Plant response rating, Sugarbeets (sugar beet; [4]) | Plant response rating, Sugarbeets (sugar beet; [5]) | Sugarbeets plant response rating (sugar beet; [6]) | Sugarbeets plant response rating (sugar beet; [7]) | Sugarbeets plant response rating (sugar beet; [8])
